Values after ≈ are worked out from the molar mass of the structure shown. Like-named read-outs stand apart in the source and are kept apart here.
How the values were obtained:
[1] = system: Bacteroides fragilis clinical isolates; test: MIC distribution against clinical isolates; type: cell-based; settings: 30 B. fragilis isolates
Source text: As used herein, “minimum inhibitory concentration” or “MIC” refers to the lowest concentration of an antimicrobial agent, for example, an antimicrobial agent as described herein, required to inhibit the growth of an organism. […] “MIC90” represents the MIC value at which ≥90% of the strains within a test population are inhibited; the 90th percentile.
Many susceptibility testing methods are known in the art and can be used as described herein (see, e.g., Jorgensen and Ferraro (2009) Clinical Infectious Diseases 49:1749-1755; and Maurer et al. (2017) Infectious Disease Reports 9:6839; the entire contents of each of the foregoing are incorporated herein by reference). For example, antimicrobial susceptibility can be determined using conventional culture based methods such as the broth or agar dilution test. In these dilution tests, the bacterial isolate of interest is inoculated onto different media that include serial dilutions of an antimicrobial agent, and incubated under appropriate conditions (e.g., overnight at 37° C.) to allow for growth to occur. Following the incubation period, the media is examined to determine bacterial growth. The lowest concentration of antibiotic that prevents growth represents the minimal inhibitory concentration (MIC). Broth dilution tests can be miniaturized and mechanized allowing for reproducibility and high throughput.

Veillonella spp. = test: Agar dilution MIC, 30 clinical isolates; type: cell-based; settings: for Mode: modal MIC
Bacteroides non fragilis = test: Agar dilution MIC, 29 clinical isolates; type: cell-based, Bacteroides spp.; settings: for Mode: modal MIC
S. agalactiae = test: Spontaneous mutation frequency and mutation prevention concentration (MPC); type: cell-based; settings: S. agalactiae ATCC 13813
Source text: (§1) As used herein, “spontaneous mutation frequency” refers to the rate at which mutations arise in a bacterium that can lead to resistance to develop to an antimicrobial agent. “Mutation prevention concentration” or “MPC” refers to the lowest concentration of antimicrobial agent above which the selective proliferation of resistant mutants is expected to occur only rarely.

S. pyogenes = test: as above; type: cell-based; settings: S. pyogenes ATCC 49399
Source text: as §1

S. pneumoniae ATCC 49619 [2] = test: Broth microdilution MIC (time-kill study); type: cell-based, Streptococcus pneumoniae
S. pyogenes ATCC 49399 = test: Broth microdilution MIC (time-kill study); type: cell-based, Streptococcus pyogenes
E. coli MMX 1312 = test: Time-kill assay; type: cell-based, Escherichia coli; settings: 2×, 4×, 8× MIC; 2, 6, 24 hr
S. pneumoniae ATCC 49619 [3] = test: Time-kill assay; type: cell-based, Streptococcus pneumoniae
S. agalactiae ATCC 13813 = test: Time-kill assay; type: cell-based, Streptococcus agalactiae; settings: 2×, 4×, 8× MIC; 2, 6, 24 hr
[4] = system: Streptococcus spp. (S. pneumoniae ATCC 49619, S. pyogenes ATCC 49399, S. agalactiae ATCC 13813); test: Agar dilution MIC (spontaneous mutation study; strain in conditions); type: cell-based
[5] = system: E. coli (ATCC 25922, ATCC 35218, MMX 1312); test: Spontaneous mutation frequency assay; type: cell-based, Escherichia coli; settings: selection at 4× and 8× MIC, meropenem/ceftriaxone: isolates other than MMX 1312
Experimental: Initial values of the MIC were determined by agar dilution in accordance with guidelines from the Clinical and Laboratory Standards Institute (CLSI; (1) “Methods for Dilution Antimicrobial Susceptibility Tests for Bacteria That Grow Aerobically; Approved Standard; 11th ed.,” CLSI standard M07, 2018; (2) “Methods for Antimicrobial Susceptibility Testing of Anaerobic Bacteria; Approved Standard—Eighth Edition,” CLSI document M11-A8, 2012.).
The agar plates were prepared by mixing a ratio of 1.0 mL of concentrated drug to 49.0 mL of the appropriate molten (47° C.) agar; the drug-supplemented agar was mixed, poured into 15-by-150 mm petri dishes and allowed to solidify and dry at room temperature prior to inoculation. […] Each plate was allowed to cool at room temperature for at least 1 hr.
The isolates were streaked onto the appropriate agar medium and incubated for 20 hr (aerobes) or 48 hr (Bacteroides under anaerobic conditions). Using a sterile swab, several well-isolated colonies were removed and resuspended in sterile saline at a heavy cell density. Each plate was inoculated with 0.5 mL of the cell suspension (each test concentration was inoculated in duplicate). The target inoculum for each spontaneous mutation plate was 10^9-10 CFU. In addition, a portion of the inoculum from each isolate was enumerated by making dilutions, spreading on agar and counting colonies.
Once the inoculum was absorbed into the agar, the plates were incubated at 35° C. Aerobes were examined at 24 and 48 hr, and resulting colonies were counted. Bacteroides were incubated anaerobically for 48-72 hr in the anaerobe chamber and colonies were counted.
Colony counts from plates used to enumerate the initial inoculum density and from the resulting spontaneous mutation frequency test plates were determined. The inoculum size was calculated as CFU inoculated per plate. The spontaneous mutation frequency was calculated using the counts from duplicate spontaneous mutation assay test plates as follows:
If there were no colonies on the antibiotic selection plates, the spontaneous mutation frequency was reported as less than the frequency observed with one colony to indicate that the spontaneous mutation frequency was less than the limit of detection (one CFU). […] The mutation prevention concentration (MPC) was reported as the lowest concentration for which no mutants were selected.

[6] = system: Streptococcus spp. spontaneous mutants; settings: S. pneumoniae ATCC 49619; CLSI QC range shown in parentheses; cited from earlier work
[7] = 30 Veillonella spp. clinical isolates
[8] = 29 Bacteroides non-fragilis clinical isolates
[9] = rifaximin selection 4X MIC, 1 μg/mL
[10] = rifaximin selection 8X MIC, 2 μg/mL
[11] = rifaximin selection 4X MIC, 0.5 μg/mL
[12] = rifaximin selection 8X MIC, 1 μg/mL

With `Cc1ncc([N+](=O)[O-])n1CCO` [MTZ] the “Cumulative percentage of isolates inhibited at MIC” value ([1]; MIC 0.5 μg/mL) was 30.0%, the “Number of test isolates at MIC” value ([1]; MIC 0.5 μg/mL) was 7 and the “Cumulative percentage of isolates inhibited at MIC” value ([1]; MIC 1 μg/mL) was 76.7%. The “Number of test isolates at MIC” value ([1]; MIC 1 μg/mL) was 14, the “Cumulative percentage of isolates inhibited at MIC” value ([1]; MIC 2 μg/mL) was 100.0% and the “Number of test isolates at MIC” value ([1]; MIC 2 μg/mL) was 7. For the same molecule, the “Cumulative percentage of isolates inhibited at MIC” value ([1]; MIC […]) was 6.7%, the “Number of test isolates at MIC” value ([1]; MIC […]) was 2 and the “% R” value (Veillonella spp.; [7]) was 17%. The “% S” value (Veillonella spp.; [7]) was 83%, the MIC50 (Veillonella spp.; [7]) was 4 µg/mL (≈ 23.4 µM) and the MIC90 (Veillonella spp.; [7]) was greater than 32 µg/mL. For the same molecule, the Mode (Veillonella spp.; [7]) was 4 µg/mL, the “% I” value (Bacteroides non fragilis; [8]) was 3% and the “% S” value (Bacteroides non fragilis; [8]) was 97%. It also gave an MIC50 (Bacteroides non fragilis; [8]) of 0.5 µg/mL (≈ 2.92 µM), an MIC90 (Bacteroides non fragilis; [8]) of 2 µg/mL (≈ 11.7 µM) and a Mode (Bacteroides non fragilis; [8]) of 0.5 µg/mL.

For `CO[C@H]1/C=C/O[C@@]2(C)Oc3c(C)c(O)c4c(O)c(c5c(nc6cc(C)ccn65)c4c3C2=O)NC(=O)/C(C)=C\C=C\[C@H](C)[C@H](O)[C@@H](C)[C@@H](O)[C@@H](C)[C@H](OC(C)=O)[C@@H]1C` [rifaximin], the “Number of test isolates at MIC” value ([1]; MIC 1 μg/mL) was 1, the “Cumulative percentage of isolates inhibited at MIC” value ([1]; MIC >32 μg/mL) was 100.0% and the “Number of test isolates at MIC” value ([1]; MIC >32 μg/mL) was 1. For the same molecule, the MFC (S. agalactiae) was greater than 2 µg/mL, the “Average Count” value (S. agalactiae; [9]) was 159 CFU and the “Count 1” value (S. agalactiae; [9]) was 180 CFU. The “Count 2” value (S. agalactiae; [9]) was 137 CFU, the “Spontaneous Mutation Frequency” value (S. agalactiae; [9]) was 2.77 × 10^−8 and the “Average Count” value (S. agalactiae; [10]) was 115 CFU. The “Count 1” value (S. agalactiae; [10]) was 110 CFU, the “Count 2” value (S. agalactiae; [10]) was 120 CFU and the “Spontaneous Mutation Frequency” value (S. agalactiae; [10]) was 2.00 × 10^−8. For the same molecule, the MFC (S. pyogenes) was greater than 1 µg/mL, the “Average Count” value (S. pyogenes; [11]) was 83 CFU and the “Count 1” value (S. pyogenes; [11]) was 78 CFU. The “Count 2” value (S. pyogenes; [11]) was 87 CFU, the “Spontaneous Mutation Frequency” value (S. pyogenes; [11]) was 1.51 × 10^−8 and the “Average Count” value (S. pyogenes; [12]) was 84 CFU. The “Count 1” value (S. pyogenes; [12]) was 78 CFU, the “Count 2” value (S. pyogenes; [12]) was 89 CFU and the “Spontaneous Mutation Frequency” value (S. pyogenes; [12]) was 1.53 × 10^−8. It also gave an MIC50 (Veillonella spp.) of 4 µg/mL (≈ 5.09 µM), an MIC90 (Veillonella spp.) of 8 µg/mL (≈ 10.2 µM) and an MIC50 (Veillonella spp.; [7]) of 4 µg/mL (≈ 5.09 µM). The MIC90 (Veillonella spp.; [7]) was 8 µg/mL (≈ 10.2 µM), the MIC range (Veillonella spp.; [7]) was 0.12 to 16 µg/mL and the Mode (Veillonella spp.; [7]) was 2 µg/mL. The MIC50 (Bacteroides non fragilis) was 0.12 µg/mL (≈ 0.153 µM), the MIC90 (Bacteroides non fragilis) was 0.5 µg/mL (≈ 0.636 µM) and the “relative activity among drugs tested” value (Bacteroides non fragilis) was “most active”. It also gave an MIC50 (Bacteroides non fragilis; [8]) of 0.12 µg/mL (≈ 0.153 µM), an MIC90 (Bacteroides non fragilis; [8]) of 0.5 µg/mL (≈ 0.636 µM) and an MIC range (Bacteroides non fragilis; [8]) of 0.03 to 0.5 µg/mL. For the same molecule, the Mode (Bacteroides non fragilis; [8]) was 0.12 µg/mL, the MIC (S. pneumoniae ATCC 49619 [2]; S. pneumoniae ATCC 49619) was 0.06 µg/mL (≈ 0.0763 µM) and the MIC (S. pneumoniae ATCC 49619 [2]; broth microdilution) was 0.06 µg/mL (≈ 0.0763 µM). The MIC (S. pyogenes ATCC 49399; S. pyogenes ATCC 49399) was 0.12 µg/mL (≈ 0.153 µM), the MIC (S. pyogenes ATCC 49399; broth microdilution) was 0.12 µg/mL (≈ 0.153 µM) and the “time-kill kinetics outcome (bactericidal = ≥3 log reduction in CFU per mL)” value (E. coli MMX 1312) was “Regrowth was also observed for all concentrations”. The “time-kill kinetics outcome (bactericidal = ≥3 log reduction in CFU per mL)” value (S. pneumoniae ATCC 49619 [3]; 2×, 4×, 8× MIC, 2, 6, 24 hr) was “rebounded to no-drug control levels at 24 hr”, the CFU decrease (S. pneumoniae ATCC 49619 [3]; all three concentrations, 6 hr timepoint) was “approximately 2.3 log10 CFU” and the “time-kill kinetics outcome (bactericidal = ≥3 log reduction in CFU per mL)” value (S. agalactiae ATCC 13813) was “bacteriostatic effect at 4× and 8× the MIC”. For the same molecule, the “Agar MIC” value ([4]; S. agalactiae ATCC 13813) was 0.25 µg/mL, the “Agar MIC” value ([4]; S. pneumoniae ATCC 49619) was 0.03 µg/mL and the “Agar MIC” value ([4]; S. pyogenes ATCC 49399) was 0.12 µg/mL. For the same molecule, the “MIC values (agar dilution)” value ([4]; over evaluated Streptococcus spp. (range stated jointly with other groups)) was 0.03 to 0.5 µg/mL, the Spontaneous Mutation Frequency [5] was > 2.37×10^−8 and the Spontaneous Mutation Frequency ([5]; listed as rifampin) was ~10^−8.

Molecule `CN[C@H](CC(C)C)C(=O)N[C@H]1C(=O)N[C@@H](CC(N)=O)C(=O)N[C@H]2C(=O)N[C@H]3C(=O)N[C@H](C(=O)N[C@H](C(=O)O)c4cc(O)cc(O)c4-c4cc3ccc4O)[C@H](O)c3ccc(c(Cl)c3)Oc3cc2cc(c3O[C@@H]2O[C@H](CO)[C@@H](O)[C@H](O)[C@H]2O[C@H]2C[C@](C)(N)[C@H](O)[C@H](C)O2)Oc2ccc(cc2Cl)[C@H]1O` [vancomycin, Vancomycin] has an MIC (S. pneumoniae ATCC 49619 [2]; Streptococcus pneumoniae, ATCC49619, S. pneumoniae ATCC 49619, read-out: MIC) of 0.25 µg/mL (≈ 0.173 µM) and an MIC (S. pyogenes ATCC 49399; Streptococcus pyogenes, ATCC49399, S. pyogenes ATCC 49399, read-out: MIC) of 0.25 µg/mL (≈ 0.173 µM).

In the case of Penicillin, the “MIC, CLSI QC range” value [6] is listed as “(0.06-0.25) μg/mL”.

For “piperacillin/tazobactam [piperacillin-tazobactam]”, the MIC (S. pneumoniae ATCC 49619 [2]; S. pneumoniae ATCC 49619) was 1 µg/mL and the MIC (S. pyogenes ATCC 49399; S. pyogenes ATCC 49399) was 0.06 µg/mL.
